US8962608B2, “Cycloalkylnitrile pyrazole carboxamides as janus kinase inhibitors” (Merck Sharp & Dohme Corp., priority 2011, dated 2015)
Counter-ions that a name gives are not always drawn.

How the values were obtained:
[1] = molecular target: JAK1 (recombinant purified GST-tagged catalytic domain) (Homo sapiens (Human), UniProt P23458); experiment: biochemical;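 note: biochemical assay with HTRF read-out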
[2] = molecular target: JAK2 (recombinant purified GST-tagged catalytic domain) (Homo sapiens (Human), UniProt O60674); experiment: biochemical;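 note: biochemical JAK kinase assay with HTRF detection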
JAK2 (recombinant purified GST-tagged catalytic domain), sequence (O60674 849-1124): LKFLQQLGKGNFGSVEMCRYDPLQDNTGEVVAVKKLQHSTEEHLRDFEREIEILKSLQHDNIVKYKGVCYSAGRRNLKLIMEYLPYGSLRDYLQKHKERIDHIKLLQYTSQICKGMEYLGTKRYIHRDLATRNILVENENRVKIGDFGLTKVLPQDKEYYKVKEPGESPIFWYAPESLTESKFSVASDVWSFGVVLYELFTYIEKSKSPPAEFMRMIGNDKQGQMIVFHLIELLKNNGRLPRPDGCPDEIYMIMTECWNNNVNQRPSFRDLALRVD

JAK1 (recombinant purified GST-tagged catalytic domain), sequence (P23458 875-1153): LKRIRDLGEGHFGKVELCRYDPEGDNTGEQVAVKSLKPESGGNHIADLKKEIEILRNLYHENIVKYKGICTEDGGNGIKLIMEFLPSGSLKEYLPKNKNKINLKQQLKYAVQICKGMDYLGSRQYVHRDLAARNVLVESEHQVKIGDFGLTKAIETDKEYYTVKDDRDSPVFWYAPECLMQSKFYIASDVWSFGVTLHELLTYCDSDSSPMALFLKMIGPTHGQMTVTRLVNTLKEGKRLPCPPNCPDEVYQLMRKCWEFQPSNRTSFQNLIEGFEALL

Structure (SMILES) | IC50 [1] | IC50 [2]
N#C[C@H]1C[C@@H](N2CCOCC2)CCC1n1cc(C(N)=O)c(Nc2ccc(S(=O)(=O)C(F)(F)F)cc2)n1 (mixture of isomers) [Example 27-13, 1-[(1S,2S,4S and 1R,2R,4R)-2-cyano-4-(morpholin-4-yl)cyclohexyl]-3-({4-[(trifluoromethyl)sulfonyl]phenyl)amino)-1H-pyrazole-4-carboxamide] | 0.3 nM | 6 nM
N#C[C@H]1C[C@@H](N)CCC1n1cc(C(N)=O)c(Nc2ccc(F)cc2)n1 (mixture of isomers) [Example 29, (1S,3S,4S and 1R,3R,4R)-4-{4-Carbamoyl-3-[(4-fluorophenyl)amino]-1H-pyrazol-1-yl}-3-cyanocyclohexanaminium trifluoroacetate] | 1 nM | 35 nM
N#C[C@H]1C[C@@H](OC(=O)NC2CCCCC2)CCC1n1cc(C(N)=O)c(Nc2ccc(F)cc2)n1 (mixture of isomers) [Example 34-2, (1S,3S,4S and 1R,3R,4R)-4-{4-carbamoyl-3-[(4-fluorophenyl)amino]-1H-pyrazol-1-yl}-3-cyanocyclohexyl cyclohexylcarbamate] | 5 nM | 164 nM
N#C[C@H]1C[C@H](OC(=O)NC2CCCCC2)CCC1n1cc(C(N)=O)c(Nc2ccc(F)cc2)n1 (mixture of isomers) [Example 34-5, (1R,3S,4S and 1S,3R,4R)-4-{4-carbamoyl-3-[(4-fluorophenyl)amino]-1H-pyrazol-1-yl}-3-cyanocyclohexyl cyclohexylcarbamate] | 7 nM | 88 nM
CNC(=O)O[C@@H]1CCC(n2cc(C(N)=O)c(Nc3ccc(F)cc3)n2)[C@@H](C#N)C1 (mixture of isomers) [Example 34-6, (1R,3S,4S and 1S,3R,4R)-4-{4-carbamoyl-3-[(4-fluorophenyl)aminol-1H-pyrazol-1-yl}-3-cyanocyclohexyl methylcarbamate] | 1 nM | 12 nM
CCNC(=O)O[C@@H]1CCC(n2cc(C(N)=O)c(Nc3ccc(F)cc3)n2)[C@@H](C#N)C1 (mixture of isomers) [Example 34-7, (1R,3S,4S and 1S,3R,4R)-4-{4-carbamoyl-3-[(4-fluorophenyl)aminol-1H-pyrazol-1-yl}-3-cyanocyclohexyl ethylcarbamate] | 0.85 nM | 9 nM
CNC(=O)O[C@H]1CCC(n2cc(C(N)=O)c(Nc3ccc(F)cc3)n2)[C@@H](C#N)C1 (mixture of isomers) [Example 34-9, (1S,3S,4S and 1R,3R,4R)-4-{4-carbamoyl-3-[(4-fluorophenyl)aminol-1H-pyrazol-1-yl}-3-cyanocyclohexyl methylcarbamate] | 3 nM | 51 nM
N#C[C@H]1C[C@@H](CF)CC[C@@H]1n1cc(C(N)=O)c(Nc2ccnc(F)c2)n1 (racemic) [Example 37, 1-[(1S,2S,4S and 1R,2R,4R)-2-Cyano-4-(fluoromethyl)cyclohexyl]-3-[(2-fluoropyridin-4-yl)amino]-1H-pyrazole-4-carboxamide] | 0.8 nM | 13 nM
CS(=O)(=O)N[C@@H]1CC[C@H](n2cc(C(N)=O)c(Nc3ccc(Cl)cc3)n2)[C@@H](C#N)C1 (racemic) [Example 38-3, 3-[(4-chlorophenyl)amino]-1-{(1S,2S,4R and 1R,2R,4S)-2-cyano-4-[(methylsulfonyl)amino]cyclohexyl}-1H-pyrazole-4-carboxamide] | 0.9 nM | 8 nM
CS(=O)(=O)N[C@H]1CC[C@H](n2cc(C(N)=O)c(Nc3ccc(Cl)cc3)n2)[C@@H](C#N)C1 (racemic) [Example 38-4, 3-[(4-chlorophenyl)amino]-1-{(1S,2S,4R and 1R,2R,4S)-2-cyano-4-[(methylsulfonyl)amino]cyclohexyl}-1H-pyrazole-4-carboxamide] | 0.5 nM | 5 nM
CN([C@@H]1CC[C@H](n2cc(C(N)=O)c(Nc3ccc(Cl)cc3)n2)[C@@H](C#N)C1)S(C)(=O)=O (racemic) [Example 38-5, 3-[(4-chlorophenyl)amino]-1-{(1S,2S,4R and 1R,2R,4S)-2-cyano-4-[methyl(methylsulfonyl)amino]cyclohexyl}-1H-pyrazole-4-carboxamide] | 12 nM | 46 nM
CN([C@H]1CC[C@H](n2cc(C(N)=O)c(Nc3ccc(Cl)cc3)n2)[C@@H](C#N)C1)S(C)(=O)=O (racemic) [Example 38-6, 3-[(4-chlorophenyl)amino]-1-{(1S,2S,4R and 1R,2R,4S)-2-cyano-4-[methyl(methylsulfonyl)amino]cyclohexyl}-1H-pyrazole-4-carboxamide] | 1 nM | 6 nM
N#C[C@H]1CCCC[C@@H]1n1cc(C(N)=O)c(Nc2ccc(Br)cc2)n1 (single isomer, unassigned) [Example 17-26, 3-[(4-bromophenyl)amino]-1-[(1S,2S or 1R,2R)-2-cyanocyclohexyl]-1H-pyrazole-4-carboxamide] | 1 nM | 11 nM
N#C[C@H]1CCCC[C@@H]1n1cc(C(N)=O)c(Nc2cnc3cc(F)ccc3c2)n1 (single isomer, unassigned) [Example 17-41, 1-[(1S,2S or 1R,2R)-2-cyanocyclohexyl]-3-[(7-fluoroquinolin-3-yl)amino]-1H-pyrazole-4-carboxamide] | 2 nM | 16 nM
CC(C)(C(=O)O)c1ccc(Nc2nn([C@@H]3CCCC[C@H]3C#N)cc2C(N)=O)cc1 (single isomer, unassigned) [Example 17-43, 2-[4-({4-carbamoyl-1-[(1R,2R or 1S,2S)-2-cyanocyclohexyl]-1H-pyrazol-3-yl}amino)phenyl]-2-methylpropanoic acid] | 0.12 nM | 7 nM
N#C[C@H]1CCCC[C@@H]1n1cc(C(N)=O)c(Nc2cncc(Cl)c2)n1 (single isomer, unassigned) [Example 17-47, 3-[(5-chloropyridin-3-yl)amino]-1-[(1S,2S or 1R,2R)-2-cyanocyclohexyl]-1H-pyrazole-4-carboxamide] | 7 nM | 39 nM
N#C[C@H]1CCCC[C@@H]1n1cc(C(N)=O)c(Nc2cnc3ccc(F)cc3c2)n1 (single isomer, unassigned) [Example 17-48, 1-[(1S,2S or 1R,2R)-2-cyanocyclohexyl]-3-[(6-fluoroquinolin-3-yl)amino]-1H-pyrazole-4-carboxamide] | 2 nM | 14 nM
N#C[C@H]1CCCC[C@@H]1n1cc(C(N)=O)c(Nc2ccc(Cl)c(Cl)c2)n1 (single isomer, unassigned) [Example 17-49, 1-[(1S,2S or 1R,2R)-2-cyanocyclohexyl]-3-[(3,4-dichlorophenyl)amino]-1H-pyrazole-4-carboxamide] | 17 nM | 93 nM
N#C[C@H]1CCCC[C@@H]1n1cc(C(N)=O)c(Nc2ccnnc2)n1 (single isomer, unassigned) [Example 17-53, 1-[(1S,2S or 1R,2R)-2-cyanocyclohexyl]-3-(pyridazin-4-ylamino)-1H-pyrazole-4-carboxamide] | 3 nM | 28 nM
N#C[C@@H]1CCCC[C@H]1n1cc(C(N)=O)c(Nc2ccc(C(F)F)nc2)n1 (single isomer, unassigned) [Example 17-55, 1-[(1R,2R or 1S,2S)-2-cyanocyclohexyl]-3-{[6-(difluoromethyl)pyridin-3-yl]amino}-1H-pyrazole-4-carboxamide] | 41 nM | 255 nM
N#C[C@H]1CCCC[C@@H]1n1cc(C(N)=O)c(Nc2ccc(C(F)F)nc2)n1 (single isomer, unassigned) [Example 17-59, 1-[(1S,2S or 1R,2R)-2-cyanocyclohexyl]-3-{[6-(difluoromethyl)pyridin-3-yl]amino}-1H-pyrazole-4-carboxamide] | 2 nM | 13 nM
N#C[C@H]1CCCC[C@@H]1n1cc(C(N)=O)c(Nc2cnc3ccc(Cl)cc3c2)n1 (single isomer, unassigned) [Example 17-60, 3-[(6-chloroquinolin-3-yl)amino]-1-[(1S,2S or 1R,2R)-2-cyanocyclohexyl]-1H-pyrazole-4-carboxamide] | 6 nM | 23 nM
N#C[C@@H]1CCCC[C@H]1n1cc(C(N)=O)c(Nc2ccc(S(=O)(=O)NCC3CC3)cc2)n1 (single isomer, unassigned) [Example 17-66, 1-[(1R,2R or 1S,2S)-2-cyanocyclohexyl]-3-({4-[(cyclopropylmethyl)sulfamoyl]phenyl}amino)-1H-pyrazole-4-carboxamide] | 0.33 nM | 1 nM
N#C[C@@H]1CCCC[C@H]1n1cc(C(N)=O)c(Nc2ccc(S(=O)(=O)Nc3ccccn3)cc2)n1 (single isomer, unassigned) [Example 17-67, 1-[(1R,2R or 1S,2S)-2-cyanocyclohexyl]-3-{[4-(pyridin-2-ylsulfamoyl)phenyl]amino}-1H-pyrazole-4-carboxamide] | 3 nM | 9 nM
N#C[C@@H]1CCCC[C@H]1n1cc(C(N)=O)c(Nc2ccc(S(=O)(=O)NCCN3CCOCC3)cc2)n1 (single isomer, unassigned) [Example 17-68, 1-[(1R,2R or 1S,2S)-2-cyanocyclohexyl]-3-({4-[(2-morpholin-4-ylethyl)sulfamoyl]phenyl}amino)-1H-pyrazole-4-carboxamide] | 0.4 nM | 1 nM
N#C[C@@H]1CCCC[C@H]1n1cc(C(N)=O)c(Nc2ccc(S(=O)(=O)N3CCC(Cc4ccccc4)CC3)cc2)n1 (single isomer, unassigned) [Example 17-69, 3-({4-[(4-benzylpiperidin-1-yl)sulfonyl]phenyl}amino)-1-[(1R,2R or 1S,2S)-2-cyanocyclohexyl]-1H-pyrazole-4-carboxamide] | 30 nM | 67 nM
COC(=O)c1cncc(Nc2nn([C@H]3CCCC[C@@H]3C#N)cc2C(N)=O)c1 (single isomer, unassigned) [Example 17-72, methyl 5-({4-carbamoyl-1-[(1R,2R or 1S,2S)-2-cyanocyclohexyl]-1H-pyrazol-3-yl}amino)pyridine-3-carboxylate] | 12 nM | 89 nM
